Measurements: patent publication US20240158393A1, “PYRIDONE COMPOUNDS AND METHODS OF USE” (Exelixis, Inc., priority 2021, published 2024)
pIC50: −log10 of the molar value. Counter-ions that a name gives are not always drawn.

molecular target: T1, Human Mer (Homo sapiens, UniProt Q12866); assay: Human Mer kinase assay (33P radiometric / HTRF KinEase); type: biochemical; details: protocols of Examples C-1 and/or C-2
T1 construct: Human Mer (residues R557-E882 with H628Q and R794A, 0.7 nM); purchased Eurofins Pharma Discovery Services UK Limited (KinaseProfiler service)
T1 sequence (Q12866 557-882 limits assumed): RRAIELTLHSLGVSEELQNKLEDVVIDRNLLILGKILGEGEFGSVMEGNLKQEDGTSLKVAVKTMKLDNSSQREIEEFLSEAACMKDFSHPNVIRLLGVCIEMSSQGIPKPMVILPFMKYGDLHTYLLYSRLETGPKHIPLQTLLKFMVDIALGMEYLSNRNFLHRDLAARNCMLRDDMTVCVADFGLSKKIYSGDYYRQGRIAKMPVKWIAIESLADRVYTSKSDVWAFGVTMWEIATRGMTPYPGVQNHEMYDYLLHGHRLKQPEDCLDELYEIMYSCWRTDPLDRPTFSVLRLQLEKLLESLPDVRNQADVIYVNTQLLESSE
In short: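 Two formats yield IC50 values. HTRF KinEase used MER residues 528-999 with ATP at Km (40 μM), 1 μM biotin-peptide, 60 min RT, […], 10 concentrations. 33P filter assay used 0.7 nM Mer R557-E882 (H628Q/R794A), 10 μM ATP, 250 μM peptide, 40 min RT, top 1 μM.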

pIC50, ≥ 7.00:
COCCOc1cc2nccc(Oc3ccc(NC(=O)c4c(C)n(C)c(C)c(/C=C/C5CCCC5)c4=O)cc3F)c2nc1OC [Compound 54, 5-[(E)-2-Cyclopentylethenyl]-N-[3-fluoro-4-[[6-methoxy-7-(2-methoxyethoxy)-1,5-naphthyridin-4-yl]oxy]phenyl]-1,2,6-trimethyl-4-oxopyridine-3-carboxamide]
C=C(C)c1c(C)n(C)c(C)c(C(=O)Nc2ccc(Oc3ccnc4cc(OC)c(OC)nc34)cc2)c1=O [Compound 55, N-[4-[(6,7-Dimethoxy-1,5-naphthyridin-4-yl)oxy]phenyl]-1,2,6-trimethyl-4-oxo-5-prop-1-en-2-ylpyridine-3-carboxamide]
COCCOc1cnc2c(Oc3ccc(NC(=O)c4c(C)n(C)c(C)c(C5=CCCCC5)c4=O)cc3F)ccnc2c1 [Compound 66, 5-(Cyclohexen-1-yl)-N-[3-fluoro-4-[[7-(2-methoxyethoxy)-1,5-naphthyridin-4-yl]oxy]phenyl]-1,2,6-trimethyl-4-oxopyridine-3-carboxamide]
C=C(C)c1c(C)n(C)c(C)c(C(=O)Nc2ccc(Oc3ccnc4cc(OC)c(OC)nc34)c(F)c2)c1=O [Compound 52, N-[4-[(6,7-Dimethoxy-1,5-naphthyridin-4-yl)oxy]-3-fluorophenyl]-1,2,6-trimethyl-4-oxo-5-prop-1-en-2-ylpyridine-3-carboxamide]
COc1cc2nccc(Oc3ccc(NC(=O)c4c(C)n(C)c(C)c(C5=CCOCC5)c4=O)cc3F)c2nc1OC [Compound 53, 5-(3,6-Dihydro-2H-pyran-4-yl)-N-[4-[(6,7-dimethoxy-1,5-naphthyridin-4-yl)oxy]-3-fluorophenyl]-1,2,6-trimethyl-4-oxopyridine-3-carboxamide]
COc1cc2nccc(Oc3ccc(NC(=O)c4c5n(cc(C6=CCCCC6)c4=O)CCOC5)cc3F)c2nc1OC [Compound G1-4, 7-(Cyclohexen-1-yl)-N-[4-[(6,7-dimethoxy-1,5-naphthyridin-4-yl)oxy]-3-fluorophenyl]-8-oxo-3,4-dihydro-1H-pyrido[2,1-c][1,4]oxazine-9-carboxamide]
COc1nc2c(Oc3ccc(NC(=O)c4c(C)n(C)c(C)c(C5=CCCC5)c4=O)cc3F)ccnc2cc1OCCC1CCC1 [Compound 74, N-[4-[[7-(2-Cyclobutylethoxy)-6-methoxy-1,5-naphthyridin-4-yl]oxy]-3-fluorophenyl]-5-(cyclopenten-1-yl)-1,2,6-trimethyl-4-oxopyridine-3-carboxamide]
COCCOc1cc2nccc(Oc3ccc(NC(=O)c4c(C)n(C)c(C)c(C5=CCCCC5)c4=O)cc3F)c2nc1OC [Compound 58, 5-(Cyclohexen-1-yl)-N-[3-fluoro-4-[[6-methoxy-7-(2-methoxyethoxy)-1,5-naphthyridin-4-yl]oxy]phenyl]-1,2,6-trimethyl-4-oxopyridine-3-carboxamide]
COc1cc2nccc(Oc3ccc(NC(=O)c4c5n(c(C)c(C6=CCOCC6)c4=O)CCOC5)cc3)c2nc1OC [Compound 73, 7-(3,6-Dihydro-2H-pyran-4-yl)-N-[4-[(6,7-dimethoxy-1,5-naphthyridin-4-yl)oxy]phenyl]-6-methyl-8-oxo-3,4-dihydro-1H-pyrido[2,1-c][1,4]oxazine-9-carboxamide]
COc1cc2nccc(Oc3ccc(NC(=O)c4cnc(C)c(C5=CCCCC5)c4O)cc3F)c2nc1OC [Compound G1-3, 5-(Cyclohexen-1-yl)-N-[4-[(6,7-dimethoxy-1,5-naphthyridin-4-yl)oxy]-3-fluorophenyl]-4-hydroxy-6-methylpyridine-3-carboxamide]
COCCOc1cnc2c(Oc3ccc(NC(=O)c4c(C)n(C)c(C)c(C5=CCCC5)c4=O)cc3F)ccnc2c1 [Compound 65, 5-(Cyclopenten-1-yl)-N-[3-fluoro-4-[[7-(2-methoxyethoxy)-1,5-naphthyridin-4-yl]oxy]phenyl]-1,2,6-trimethyl-4-oxopyridine-3-carboxamide]
COc1cc2nccc(Oc3ccc(NC(=O)c4cnc(C)c(C5=CCCC5)c4O)cc3F)c2nc1OC [Compound G1-2, 5-(Cyclopenten-1-yl)-N-[4-[(6,7-dimethoxy-1,5-naphthyridin-4-yl)oxy]-3-fluorophenyl]-4-hydroxy-6-methylpyridine-3-carboxamide hydrochloride]
